Results reported in article PMC9933611 (2023).

Legend:
[1] = test system: Re-engineered ATP-binding aptamer, 4-nt poly-T linker (DNA, aptamer) ACCTGGGGGAGTATTTTTTGCGGAGGAAGGA; assay: fluorescence melting (AF488/BHQ-1); details: 10 mM Mg2+; 100 mM Tris HCl, pH 6.5; 3 mM ATP, 50 nM aptamer; temperature of 50% ligand release, not a shift
[2] = test system: Re-engineered ATP-binding aptamer, 70-nt poly-T linker (DNA, aptamer) ACCTGGGGGAGTATTTTTTTTTTTTTTTTTTTTTTTTTTTTTTTTTTTTTTTTTTTTTTTTTTTTTTTTTTTTTTTTTTTTTTTTGCGGAGGAAGGA; assay: fluorescence melting (AF488/BHQ-1); details: 10 mM Mg2+; 100 mM Tris HCl, pH 6.5; 3 mM ATP, 50 nM aptamer; temperature of 50% ligand release, not a shift

Nc1ncnc2c1ncn2[C@@H]1O[C@H](COP(=O)(O)OP(=O)(O)OP(=O)(O)O)[C@@H](O)[C@H]1O
T50% [1]: 59.0 ± 0.5 °C | T50% [2]: 43.2 ± 0.5 °C
